Measured values as given in article PMC12428754, “Testing Strategies for Metabolite-Mediated Neurotoxicity” (International Journal of Molecular Sciences, 2025).
Like-named read-outs stand apart in the source and are kept apart here.

Experiments:
[1] = test system: hiPSC-derived immature human dorsal root ganglia neuron-like cells; test: PeriTox (UKN5a) neurite outgrowth assay; type: cell-based; details: for parent/metabolite potency ratio (BMC25): listed under the metabolite
Experimental: PeriTox assay was performed as previously described. In brief, cryopreserved hiPSC-derived immature human dorsal root ganglia neuron-like cells were thawed and plated at a density of 100,000 cells/cm^2 into matrigel-coated 96-well plates. The cells were cultured in 75 µL PeriTox differentiation medium (PDM) consisting of 25% KSR-S and 75% N2-S media supplemented with 1.5 µM CHIR99021, 1.5 µM SU5402, and 5 µM DAPT (KSR-S: knockout DMEM with 15% serum replacement, 1x Glutamax, 1x nonessential amino acids, and […] beta-mercaptoethanol; N2-S: DMEM/F12, with 2 mM Glutamax, 0.1 mg/mL apotransferrin, 1.55 mg/mL glucose, 25 µg/mL insulin, […] putrescine, 30 nM selenium, and 20 nM progesterone). After one hour, 25 µL PDM with 4x concentrated serial dilutions of the test compounds was added to the cells.
The image acquisition and analysis were conducted according to established protocols. The cells were stained with Hoechst H-33342 (1 µg/mL) to visualise nuclei and calcein-AM (1 µM) to label viable cell structures. Fluorescent images were acquired using an automated imaging system. An image analysis algorithm detected nuclei to define somatic regions, which were then excluded from the total calcein-positive area. The remaining signal was quantified as the neurite area.
In the first step, matched technical replicates were averaged. […] For visualisation, GraphPad Prism 9 was used. […]
Supplementary Figure S1: Comparison of data from the MitoMet test and the PeriTox test. A) Exposure scheme for the PeriTox test (UKN5a):
For testing, cryopreserved hiPSC-derived immature human dorsal root ganglia neuron-like cells were thawed and plated into 96-well plates. Cells were treated with toxicants at one h after plating. Neurite outgrowth and viability were determined at 24 h later, using automated high content imaging. B) Benchmark concentrations (BMC25) were calculated as a measure for “onset of toxicity” for the MitoMet (UKN4b; as described in Figure 1) and UKN5a assay. If no BMC could be determined, the highest tested concentration was used as surrogate endpoint. The arrows indicate the sensitivity shifts of parent vs metabolite in the respective assay. […]

[2] = test system: LUHMES cells; test: MitoMet (UKN4b) neurite outgrowth assay; type: cell-based, human; details: for IC25: benchmark response 25%, neurite area, 24 h exposure, three independent experiments, read-out: BMC25 neurite outgrowth
Experimental: Figure 1 (A) A strategy scheme to assess metabolite-mediated hazard in NAMs used for neurotoxicity or developmental neurotoxicity. Parent and metabolite compounds are tested separately in the respective assay. This strategy is applicable when there is prior knowledge of metabolite formation. A decision rule based on the relative toxicities (X) of the parent and metabolite may be applied to decide whether next-generation risk assessment (NGRA) should be applied to the metabolite. The value of X may be defined according to the problem formulation and the NAM used. (B) An assay scheme of the neurite outgrowth assay used here for exemplification: Proliferating LUHMES cells were replated one day before differentiation was initiated (day −1). After two days (day 2) in differentiation medium, the cells were replated into assay format (96-well). At this point, neurite growth was re-initiated. The cells were treated with toxicants 1 h after replating. Neurite outgrowth and viability were determined 24 h later, using automated high content imaging. (C) Comparison of neurite outgrowth of cultures treated with bromethalin and desmethyl-bromethalin one exemplary parent/metabolite pair (chemical structures shown). […] The curves are based on data from three independent experiments and were fitted using a four-parameter Hill function. Data points shown are arithmetic means of data from independent experiments ±SEM. In each independent experiment, the technical replicates were measured and averaged. A benchmark response (BMR) of 25% was used as specified in the detailed assay description, and the respective benchmark concentration (BMC25) was determined. […] (D) Microscopic images of calcein-stained LUHMES cells. Similar images are used for neurite quantification. Treatment with 40 nM of the parent (left) or metabolite (right). The scale bar in orange corresponds to 50 µm. […] It stands under panel C and to the right of panel D, and was assigned to C.
The MitoMet neurite outgrowth assay was performed as previously described. In brief, all cell culture dishes and flasks were pre-coated with 50 μg/mL poly-l-ornithine (PLO) and 1 μg/mL fibronectin. Proliferating LUHMES cells were maintained in AdvDMEM/F12 containing L-glutamine (2 mM), N2 supplement (1x), and FGF (40 ng/mL). For pre-differentiation, the cells were replated at a density of 46,000 cells/cm^2 one day prior to the induction of differentiation (defined as the day of differentiation, Day −1). Differentiation was initiated by exchanging the culture medium for AdvDMEM/F12 supplemented with L-glutamine (2 mM), N2 supplement (1x), dibutyryl-cAMP (1 mM), tetracycline (1 µg/mL), and GDNF (2 ng/mL). After two days of differentiation (Day 2), the cells were replated (100,000 cells/cm^2) into 96-well plates. The final assay medium consisted of glucose-free AdvDMEM/F12 supplemented with galactose (18 mM), L-glutamine (2 mM), and tetracycline (1 µg/mL). One hour after replating, the cells were treated with a 10× concentrated stock solution of the test compound. Neurite outgrowth and viability were determined 24 h later, using automated high content imaging.
The image acquisition and analysis were conducted according to established protocols. The cells were stained with Hoechst H-33342 (1 µg/mL) to visualise nuclei and calcein-AM (1 µM) to label viable cell structures. Fluorescent images were acquired using an automated imaging system.

[3] = test system: hiPSC-derived neural crest-like cells; test: cMINC (UKN2) neural crest cell migration assay; type: cell-based, human; details: listed under the metabolite
Experimental: Figure 6 The transfer of the metabolisation module to the neural crest cell migration assay (cMINC). (A) A schematic of the cMINC (circular migration of neural crest cells) assay. The cells were seeded around a central stopper to create a cell-free circular area. Migration was initiated 24 h after seeding by removing the stopper. This is defined as the day of migration (DoM) 0. On DoM 1, the cells were exposed to toxicants. After 24 h of exposure, both cell migration and viability were quantified, using automated high-content imaging. (B) Compatibility of the metabolisation module (preincubation with 500 µg/mL S9 at 37 °C for 2 h) with the cMINC assay: The setup was as described in Figure 4 and as exemplified in Figure 5A. No compound was added (solvent control). The S9 mixture (at 500 µg/mL ± NADPH) was added to the normal cell culture medium of the cMINC assay (so that the addition was 10% of the total volume). Data are from three independent experiments. (C,D) The concentration-dependent effects on migration were evaluated for metabolite mixtures generated from bromethalin (C) or chlorfenapyr (D). […] The arrows indicate the direction of sensitivity shift between NADPH-dependent and -independent metabolite mixtures, with accompanying fold change values. The concentrations are given as nominal concentrations of the parent compound. Abbreviations: n.s., not significant. TEXT PRINTED IN THE PICTURE: (C) Bromethalin: x30 | (D) Chlorfenapyr: x15
The MINC assay was performed as previously described. Briefly, 96-well plates were prepared by inserting a central 2 mm diameter stopper (Platypus Technologies, Madison, WI, USA) into pre-coated wells with a composite poly-L-ornithine (PLO; 10 µg/mL), fibronectin (1 µg/mL), and laminin (1 µg/mL) matrix. […] After a further 24 h (DoM 2), cell migration and viability were assessed. […] High content imaging was performed, and data were analysed using the RingAssay V1 software (http://invitrotox.uni-konstanz.de/, accessed on 3 February 2025). […]

| SMILES | effect on peripheral neurite outgrowth ([1]; result in words) | IC25 ([2]; Homo sapiens) [µM] | parent/metabolite potency ratio (BMC25) [1] | increase in potency of metabolite compared to parent (BMC25 ratio) [3] [fold] | neurite area, metabolite compared to parent at equimolar concentrations ([2]; 40 nM, calcein-stained LUHMES cells) | IC25 [2] [µM] | fold change between BMC25 values of parent and metabolite (potency ratio, parent divided by metabolite) ([2]; listed under the metabolite, >1 = metabolite more potent) [fold] |
| --- | --- | --- | --- | --- | --- | --- | --- |
| O=C(c1ccccc1)c1ccccc1 [Benzophenone] | neither benzophenone nor its hydroxy metabolite showed any significant effect | > 500 |  |  |  |  |  |
| COC(=O)Nc1nc2ccccc2[nH]1 [Carbendazim] |  | 4.8 | 0.2 |  |  |  |  |
| O=[N+]([O-])c1cc([N+](=O)[O-])c(Nc2c(Br)cc(Br)cc2Br)c(C(F)(F)F)c1 [Desmethyl-bromethalin] |  |  | 3 | 44 | clear reduction in the neurite area | 0.014 | 57 |
